# From PMC7156458, “Synthetic biology based construction of biological activity-related library of fungal decalin-containing diterpenoid pyrones” (Nature Communications, 2020)
# Biological target: Aβ42 (Homo sapiens, UniProt P05067)
# Experiment: Th-T (thioflavin-T) assay of Aβ42 aggregation
# Assay type: biochemical
# Conditions: for Th-T fluorescence, mean of three wells: Aβ42 aggregation time course
# Sequence of Aβ42 (P05067 672-713): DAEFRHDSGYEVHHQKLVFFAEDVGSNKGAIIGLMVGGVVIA
smiles,measurement,setting,value
C=C1CC[C@@H]2[C@](C)(CC[C@H]3O[C@H](C=C(C)C)C[C@@]23C)[C@@H]1Cc1c(OC)oc(CO)c(C)c1=O [Compound 20],delay of the nucleation phase,,no delay
same,elongation of Aβ42,,partly suppressed the elongation of Aβ42
same,first Th-T assay result,"Aβ42 (10 μM) ± DPPs (20 μM), room temperature",slightly suppressed
same,"Th-T fluorescence, mean of three wells",reading M117,4.214
same,"Th-T fluorescence, mean of three wells",reading M118,4.194
same,"Th-T fluorescence, mean of three wells",reading M119,4.178
same,"Th-T fluorescence, mean of three wells",reading M120,4.1845
same,"Th-T fluorescence, mean of three wells",reading M121,4.166
same,"Th-T fluorescence, mean of three wells",reading M122,4.139
same,"Th-T fluorescence, mean of three wells",reading M123,4.16
same,"Th-T fluorescence, mean of three wells",reading M124,4.194
same,"Th-T fluorescence, mean of three wells",reading M125,4.155
same,"Th-T fluorescence, mean of three wells",reading M126,4.13
same,"Th-T fluorescence, mean of three wells",reading M127,4.172
same,"Th-T fluorescence, mean of three wells",reading M128,4.137
same,"Th-T fluorescence, mean of three wells",reading M129,4.1254
same,"Th-T fluorescence, mean of three wells",reading M130,4.128
same,"Th-T fluorescence, mean of three wells (Fig. 7a)","column suffix _10, measurement M19",3.317
same,"Th-T fluorescence, mean of three wells (Fig. 7a)","column suffix _10, measurement M20",3.391
same,"Th-T fluorescence, mean of three wells (Fig. 7a)","column suffix _10, measurement M21",3.434
same,"Th-T fluorescence, mean of three wells (Fig. 7a)","column suffix _10, measurement M22",3.448
same,"Th-T fluorescence, mean of three wells (Fig. 7a)","column suffix _10, measurement M23",3.464
same,"Th-T fluorescence, mean of three wells (Fig. 7a)","column suffix _10, measurement M24",3.465
same,"Th-T fluorescence, mean of three wells (Fig. 7a)","column suffix _10, measurement M25",3.454
same,"Th-T fluorescence, mean of three wells (Fig. 7a)","column suffix _10, measurement M26",3.452
same,"Th-T fluorescence, mean of three wells (Fig. 7a)","column suffix _10, measurement M27",3.468
same,"Th-T fluorescence, mean of three wells (Fig. 7a)","column suffix _10, measurement M28",3.469
same,"Th-T fluorescence, mean of three wells (Fig. 7a)","column suffix _10, measurement M29",3.45
same,"Th-T assay signal, mean of three wells (Fig. 7a)","column suffix _10, reading M1",0.2292
same,"Th-T assay signal, mean of three wells (Fig. 7a)","column suffix _10, reading M2",0.2545
same,"Th-T assay signal, mean of three wells (Fig. 7a)","column suffix _10, reading M3",0.2762
same,"Th-T assay signal, mean of three wells (Fig. 7a)","column suffix _10, reading M4",0.324
same,"Th-T assay signal, mean of three wells (Fig. 7a)","column suffix _10, reading M5",0.3535
same,"Th-T assay signal, mean of three wells (Fig. 7a)","column suffix _10, reading M6",0.4731
same,"Th-T assay signal, mean of three wells (Fig. 7a)","column suffix _10, reading M7",0.5173
same,"Th-T assay signal, mean of three wells (Fig. 7a)","column suffix _10, reading M8",0.5644
same,"Th-T assay signal, mean of three wells (Fig. 7a)","column suffix _10, reading M9",0.6382
same,"Th-T assay signal, mean of three wells (Fig. 7a)","column suffix _10, reading M10",0.6392
same,"Th-T assay signal, mean of three wells (Fig. 7a)","column suffix _10, reading M11",0.7204
same,"Th-T assay signal, mean of three wells (Fig. 7a)","column suffix _10, reading M12",0.8506
same,"Th-T assay signal, mean of three wells (Fig. 7a)","column suffix _10, reading M13",1.108
same,"Th-T assay signal, mean of three wells (Fig. 7a)","column suffix _10, reading M14",1.585
same,"Th-T assay signal, mean of three wells (Fig. 7a)","column suffix _10, reading M15",2.1202
same,"Th-T assay signal, mean of three wells (Fig. 7a)","column suffix _10, reading M16",2.635
same,"Th-T assay signal, mean of three wells (Fig. 7a)","column suffix _10, reading M17",2.976
same,"Th-T assay signal, mean of three wells (Fig. 7a)","column suffix _10, reading M18",3.206
same,"Fig. 7a Th-T reading, mean of three wells","column suffix _10, reading M85",3.354
same,"Fig. 7a Th-T reading, mean of three wells","column suffix _10, reading M86",3.35
same,"Fig. 7a Th-T reading, mean of three wells","column suffix _10, reading M87",3.36
same,"Fig. 7a Th-T reading, mean of three wells","column suffix _10, reading M88",3.344
same,"Fig. 7a Th-T reading, mean of three wells","column suffix _10, reading M89",3.359
same,"Fig. 7a Th-T reading, mean of three wells","column suffix _10, reading M90",3.344
same,"Fig. 7a Th-T reading, mean of three wells","column suffix _10, reading M91",3.334
same,"Fig. 7a Th-T reading, mean of three wells","column suffix _10, reading M92",3.329
same,"Fig. 7a Th-T reading, mean of three wells","column suffix _10, reading M93",3.316
same,"Fig. 7a Th-T reading, mean of three wells","column suffix _10, reading M94",3.328
same,"Fig. 7a Th-T reading, mean of three wells","column suffix _10, reading M95",3.309
same,"Fig. 7a Th-T reading, mean of three wells","column suffix _10, reading M96",3.312
same,"Fig. 7a Th-T reading, mean of three wells","column suffix _10, reading M97",3.295
same,"Fig. 7a Th-T reading, mean of three wells","column suffix _10, reading M98",3.318
same,"Fig. 7a Th-T reading, mean of three wells","column suffix _10, reading M99",3.3
same,"Fig. 7a Th-T reading, mean of three wells","column suffix _10, reading M100",3.294
same,"Fig. 7a Th-T reading, mean of three wells","column suffix _10, reading M101",3.313
same,"Fig. 7a Th-T reading, mean of three wells","column suffix _10, reading M102",3.28
same,"Fig. 7a Th-T reading, mean of three wells","column suffix _10, reading M103",3.294
same,"Fig. 7a Th-T reading, mean of three wells","column suffix _10, reading M104",3.29
same,"Fig. 7a Th-T reading, mean of three wells","column suffix _10, reading M105",3.266
same,"Fig. 7a Th-T reading, mean of three wells","column suffix _10, reading M106",3.268
same,"Th-T fluorescence, mean of three wells (Fig. 7a)","column suffix _20, measurement M19",3.146
same,"Th-T fluorescence, mean of three wells (Fig. 7a)","column suffix _20, measurement M20",3.22
same,"Th-T fluorescence, mean of three wells (Fig. 7a)","column suffix _20, measurement M21",3.265
same,"Th-T fluorescence, mean of three wells (Fig. 7a)","column suffix _20, measurement M22",3.294
same,"Th-T fluorescence, mean of three wells (Fig. 7a)","column suffix _20, measurement M23",3.285
same,"Th-T fluorescence, mean of three wells (Fig. 7a)","column suffix _20, measurement M24",3.3066
same,"Th-T fluorescence, mean of three wells (Fig. 7a)","column suffix _20, measurement M25",3.328
same,"Th-T fluorescence, mean of three wells (Fig. 7a)","column suffix _20, measurement M26",3.367
same,"Th-T fluorescence, mean of three wells (Fig. 7a)","column suffix _20, measurement M27",3.353
same,"Th-T fluorescence, mean of three wells (Fig. 7a)","column suffix _20, measurement M28",3.346
same,"Th-T fluorescence, mean of three wells (Fig. 7a)","column suffix _20, measurement M29",3.34
same,"Th-T fluorescence, mean of three wells (Fig. 7a)","column suffix _20, measurement M30",3.361
same,"Th-T assay signal, mean of three wells (Fig. 7a)","column suffix _20, reading M1",0.2139
same,"Th-T assay signal, mean of three wells (Fig. 7a)","column suffix _20, reading M2",0.2391
same,"Th-T assay signal, mean of three wells (Fig. 7a)","column suffix _20, reading M3",0.2688
same,"Th-T assay signal, mean of three wells (Fig. 7a)","column suffix _20, reading M4",0.2877
same,"Th-T assay signal, mean of three wells (Fig. 7a)","column suffix _20, reading M5",0.33
same,"Th-T assay signal, mean of three wells (Fig. 7a)","column suffix _20, reading M6",0.4061
same,"Th-T assay signal, mean of three wells (Fig. 7a)","column suffix _20, reading M7",0.4716
same,"Th-T assay signal, mean of three wells (Fig. 7a)","column suffix _20, reading M8",0.5038
same,"Th-T assay signal, mean of three wells (Fig. 7a)","column suffix _20, reading M9",0.5302
same,"Th-T assay signal, mean of three wells (Fig. 7a)","column suffix _20, reading M10",0.5653
same,"Th-T assay signal, mean of three wells (Fig. 7a)","column suffix _20, reading M11",0.6147
same,"Th-T assay signal, mean of three wells (Fig. 7a)","column suffix _20, reading M12",0.7691
same,"Th-T assay signal, mean of three wells (Fig. 7a)","column suffix _20, reading M13",1.152
same,"Th-T assay signal, mean of three wells (Fig. 7a)","column suffix _20, reading M14",1.832
same,"Th-T assay signal, mean of three wells (Fig. 7a)","column suffix _20, reading M15",2.436
same,"Th-T assay signal, mean of three wells (Fig. 7a)","column suffix _20, reading M16",2.813
same,"Th-T assay signal, mean of three wells (Fig. 7a)","column suffix _20, reading M17",2.993
same,"Th-T assay signal, mean of three wells (Fig. 7a)","column suffix _20, reading M18",3.081
same,"Fig. 7a Th-T reading, mean of three wells","column suffix _20, reading M85",3.286
same,"Fig. 7a Th-T reading, mean of three wells","column suffix _20, reading M86",3.29
same,"Fig. 7a Th-T reading, mean of three wells","column suffix _20, reading M87",3.2956
same,"Fig. 7a Th-T reading, mean of three wells","column suffix _20, reading M88",3.332
same,"Fig. 7a Th-T reading, mean of three wells","column suffix _20, reading M89",3.367
same,"Fig. 7a Th-T reading, mean of three wells","column suffix _20, reading M90",3.341
same,"Fig. 7a Th-T reading, mean of three wells","column suffix _20, reading M91",3.299
same,"Fig. 7a Th-T reading, mean of three wells","column suffix _20, reading M92",3.303
same,"Fig. 7a Th-T reading, mean of three wells","column suffix _20, reading M93",3.313
same,"Fig. 7a Th-T reading, mean of three wells","column suffix _20, reading M94",3.332
same,"Fig. 7a Th-T reading, mean of three wells","column suffix _20, reading M95",3.309
same,"Fig. 7a Th-T reading, mean of three wells","column suffix _20, reading M96",3.268
same,"Fig. 7a Th-T reading, mean of three wells","column suffix _20, reading M97",3.26
same,"Fig. 7a Th-T reading, mean of three wells","column suffix _20, reading M98",3.269
same,"Fig. 7a Th-T reading, mean of three wells","column suffix _20, reading M99",3.3
same,"Fig. 7a Th-T reading, mean of three wells","column suffix _20, reading M100",3.292
